Several values for one entry are separate records, joined by “and”; a condition that tells them apart may be missing. Equal values may be shown once. Read-outs that look alike come from different tables or passages of the source.

In general, melting point refers to the temperature, or range, at which the solid turns liquid.

The subject of data set [1] is HepG2 human cancer-cell line. Nature of the data set: MTT antiproliferative assay, HepG2. In kind it is cell-based. Here is the method: (§1) Selected compounds were evaluated in vitro for their antiproliferative activities against HepG2 and MCF-7 human cancer-cell lines using MTT assays. Cell viabilities and IC50 values were obtained and compared with those of the control, doxorubicin (Table 1).
(§2) The antiproliferative activity of the test compounds against HepG2, and MCF-7 human cancer-cell lines were evaluated by MTT assay. The detailed methodology procedure was reported. […]
On the technique in general: Formazan colour is commonly taken as a measure of viable cells.

Data set [2] relates to MCF-7 human cancer-cell line. Nature of the data set: MTT antiproliferative assay, MCF-7. Type of data set: cell-based. Here is the method:
as §1, §2

Data set [3] has as its system MCF-7 cells. Nature of the data set: Cell-cycle analysis by flow cytometry (PI), MCF-7. In kind it is cell-based, human. As to conditions: MCF-7, 48 h at the IC50 of the compound. Here is the method:
(§3) To investigate whether the tested compounds could arrest HepG2 and MCF-7 mitotic cell division, cell distributions at cell-cycle phases were analyzed by flow cytometry following their treatment with the vehicle or the indicated compound at its IC50 concentration. Cells and samples were prepared as previously reported, and a PI (ab139418) Flow Cytometry Kit (Abcam, Cambridge, UK) was used in accordance with the manufacturer’s protocol. In brief, both HepG2 and MCF-7 cells were separate, plated into six-well plates at a density of 0.6 × 10^6 cells/well in DMEM growth medium supplemented with 10% FBS. Cells were incubated for 24 h at 37 °C and 5% CO2 prior to exposure to either the vehicle (DMSO) as the control or 13, 14, or 15, at their IC50 concentrations. […] All cells were incubated for 48 h, washed with cold PBS after being harvested to single-cell suspensions by trypsinization, and fixed with 70% ethanol. The fixed cells were rehydrated in PBS prior to being lysed in a prepared solution of PI, Triton X-100, and RNase. Finally, the cells were kept at 37 °C for 15 min and analyzed using a FACS Caliber flow cytometer (BD Biosciences and Co., Franklin Lakes, NJ, USA).

Data set [4] concerns MCF-7 cells. Nature of the data set: Apoptosis by annexin-V FITC/PI double staining, MCF-7. As to conditions: MCF-7, 48 h at the IC50 of the compound. In kind it is cell-based, human. On the procedure:
(§4) Apoptosis was detected for both HepG2 and MCF-7cells using the same preparation and sample treatment conditions as those used for cell-cycle analysis. The manufacturer’s instructions for the annexin-V FITC apoptosis detection kit (K101, Biovision, Milpitas, CA, USA) were followed. In brief, treated cells were detached after 48 h by trypsinization, washed twice with cold PBS, and stained with 5 μL of annexin-V fluorescein isothiocyanate (annexin-V FITC) and 5 μL of PI in the binding buffer for 15 min at 37 °C. Finally, the processed cells were analyzed using a FACS Caliber flow cytometer (BD Biosciences and Co., Franklin Lakes, NJ, USA).

In the next data set the target is T1, VEGFR-2 (KDR) (Homo sapiens, UniProt P35968).
T1 construct: purchased Cat. #40325
Description: In vitro inhibition of VEGFR-2 (KDR) kinase assay kit. As to conditions: for Fold Relative to Sorafenib: VEGFR-2 IC50 relative to sorafenib; for IC50: luminescence kinase kit, 0.0–10.0 μM range, read-out: IC50 nM, VEGFR-2 enzyme. In kind it is biochemical. Here is the method:
At the indicated end of the experiment, the luminescence was measured by a Tecan spark microplate reader.

Data set [5] deals with HepG2 cells. Description: Cell-cycle analysis by flow cytometry (PI), HepG2. In kind it is cell-based, human. As to conditions: HepG2, 48 h at the IC50 of the compound. On the procedure: as §3
Background: Flow cytometry measures light scatter and fluorescence of single cells or particles in a stream.

In data set [6] the test system is HepG2 cells. Nature of the data set: Apoptosis by annexin-V FITC/PI double staining, HepG2. Type of data set: cell-based, human. As to conditions: HepG2, 48 h at the IC50 of the compound. On the procedure:
as §4

The mark [7] stands for this setting: MTT, 48 h of exposure, read-out: IC50 (μM) ± SD HepG2.
Where [8] appears, read: Table S5, read-out: pIC50(exp) HepG2 (converted).
Setting [9] is: MCF7, MTT, 48 h of exposure, read-out: IC50 (μM) ± SD MCF-7.
[10] abbreviates: MCF7, Table S5, read-out: pIC50 (exp) MCF7 (converted).

T1 sequence (P35968 20-1356): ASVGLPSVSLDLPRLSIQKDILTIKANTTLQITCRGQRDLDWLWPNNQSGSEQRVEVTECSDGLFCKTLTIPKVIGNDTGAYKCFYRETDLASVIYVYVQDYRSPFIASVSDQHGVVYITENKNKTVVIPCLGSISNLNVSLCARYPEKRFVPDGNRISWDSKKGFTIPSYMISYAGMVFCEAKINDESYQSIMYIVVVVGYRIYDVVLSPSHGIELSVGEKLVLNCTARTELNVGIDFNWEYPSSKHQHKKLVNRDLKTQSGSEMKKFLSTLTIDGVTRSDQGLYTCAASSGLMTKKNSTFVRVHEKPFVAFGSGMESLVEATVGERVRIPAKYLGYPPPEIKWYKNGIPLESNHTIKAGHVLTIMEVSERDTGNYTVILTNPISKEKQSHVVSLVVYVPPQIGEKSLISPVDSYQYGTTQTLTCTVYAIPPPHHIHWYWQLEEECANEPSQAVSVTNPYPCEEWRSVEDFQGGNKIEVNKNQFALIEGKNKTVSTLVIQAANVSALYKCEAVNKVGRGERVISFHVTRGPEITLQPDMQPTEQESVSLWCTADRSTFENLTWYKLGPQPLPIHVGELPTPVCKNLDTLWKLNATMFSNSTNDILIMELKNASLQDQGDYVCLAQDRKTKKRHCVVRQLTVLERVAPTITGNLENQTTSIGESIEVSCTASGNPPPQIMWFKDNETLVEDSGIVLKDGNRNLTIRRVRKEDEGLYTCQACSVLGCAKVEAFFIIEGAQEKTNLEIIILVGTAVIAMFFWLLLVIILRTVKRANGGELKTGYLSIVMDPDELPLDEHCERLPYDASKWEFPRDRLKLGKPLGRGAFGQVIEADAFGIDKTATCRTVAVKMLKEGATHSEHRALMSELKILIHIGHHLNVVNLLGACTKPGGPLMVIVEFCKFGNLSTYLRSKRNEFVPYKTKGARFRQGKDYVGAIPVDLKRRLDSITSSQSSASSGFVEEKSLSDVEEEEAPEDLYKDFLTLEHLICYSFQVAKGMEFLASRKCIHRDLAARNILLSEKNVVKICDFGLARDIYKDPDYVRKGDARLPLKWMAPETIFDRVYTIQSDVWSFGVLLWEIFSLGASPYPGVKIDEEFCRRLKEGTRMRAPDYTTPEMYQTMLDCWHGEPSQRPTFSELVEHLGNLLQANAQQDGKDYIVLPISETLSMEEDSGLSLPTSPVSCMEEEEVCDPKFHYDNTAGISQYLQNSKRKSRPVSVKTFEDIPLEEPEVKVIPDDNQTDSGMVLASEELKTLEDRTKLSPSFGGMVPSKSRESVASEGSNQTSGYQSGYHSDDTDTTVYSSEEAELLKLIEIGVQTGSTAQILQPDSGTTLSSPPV

Take `Cn1c(=S)[nH]c2cc3ccccc3cc2c1=O` [Compound 1, 3-Methyl-2-thioxo-2,3-dihydrobenzo[g]quinazolin-4(1H)-one]: the IC50 in data set [1] (setting [7]) was 40.4 ± 4.1 µM; in data set [1] (setting [8]) it was 40.4 µM; in data set [2] (setting [9]) it was 10.7 ± 1.1 µM; in data set [2] (setting [10]), 10.7 µM.

Compound `CCn1c(SCc2ccccc2)nc2cc3ccccc3cc2c1=O` [Compound 10, 2-(Benzylthio)-3-ethylbenzo[g]quinazolin-4(3H)-one] showed a melting point of 132 to 134 °C. Also, the IC50 in data set [1] (setting [7]) worked out at 36.2 ± 3.5 µM. The IC50 in data set [1] (setting [8]) is 36.2 µM. Also, the IC50 in data set [2] (setting [9]) is 8.8 ± 0.5 µM. Further, in data set [2] (setting [10]), the IC50 is 8.79 µM. Besides, in the data set with MCF-7 cells [3], the “Cell Cycle Distribution %G0/G1” value is recorded as 39.28%; the “Cell Cycle Distribution %G2/M” value was 34.6% and 34.55%; the “Cell Cycle Distribution %S” value was 26.17%. Besides, in the data set with MCF-7 cells [4], the “Apoptosis Early” value amounted to 4.64%, the “Apoptosis Late” value came to 17.03%, the “Apoptosis Total” value is recorded as 21.67% and the Necrosis worked out at 9.61%. At VEGFR-2 (KDR), the “Fold Relative to Sorafenib” value turned out to be 4.5 fold and the IC50 stood at 134 ± 8.2 nM.

On to `COc1cccc(CSc2nc3cc4ccccc4cc3c(=O)n2C)c1` [Compound 8, 2-((3-Methoxybenzyl)thio)-3-methylbenzo[g]quinazolin-4(3H)-one], for which the IC50 in data set [1] (setting [7]) was 31.3 ± 3.1 µM; in data set [1] (setting [8]), 31.3 µM; in data set [2] (setting [9]) it was 10.9 ± 0.9 µM; in data set [2] (setting [10]) it was 10.9 µM.

Turning to `CCn1c(NN)nc2cc3ccccc3cc2c1=O` [Compound 17], the IC50 in data set [1] (setting [7]) is 29.8 ± 2.1 µM; in data set [1] (setting [8]) it was 29.8 µM; in data set [2] (setting [9]) it was 10.1 ± 0.7 µM; in data set [2] (setting [10]), 10.1 µM.

In the case of `CCn1c(=S)[nH]c2cc3ccccc3cc2c1=O` [Compound 2, 3-Ethyl-2-thioxo-2,3-dihydrobenzo[g]quinazolin-4(1H)-one], the IC50 in data set [1] (setting [7]) is 36.1 ± 3.6 µM; in data set [1] (setting [8]) it was 36.1 µM; in data set [2] (setting [9]), 10.5 ± 0.5 µM; in data set [2] (setting [10]), 10.5 µM.

Take `CCn1c(SCc2cccc(OC)c2)nc2cc3ccccc3cc2c1=O` [Compound 13, 3-Ethyl-2-((3-methoxybenzyl)thio)benzo[g]quinazolin-4(3H)-one]: in data set [1] (setting [7]), the IC50 came out at 27.5 ± 2.1 µM. Besides, in data set [1] (setting [8]), the IC50 was 27.5 µM. Also, the IC50 in data set [2] (setting [9]) was found to be 10.1 ± 1.1 µM. Moreover, the IC50 in data set [2] (setting [10]) is 10.1 µM. Further, in the data set with HepG2 cells [5], the “Cell Cycle Distribution %G0/G1” value is on record as 38.22%; the “Cell Cycle Distribution %G2/M” value is 6.52%; the “Cell Cycle Distribution %S” value was 55.3% and 55.26%. For the same compound, in the data set with MCF-7 cells [3], the “Cell Cycle Distribution %G2/M” value is 4.36% and the “Cell Cycle Distribution %S” value stood at 33.25%. Also, in the data set with HepG2 cells [6], the “Apoptosis Early” value was 2.82%, the “Apoptosis Late” value worked out at 18.56%, the “Apoptosis Total” value is reported as 21.38% and the Necrosis was found to be 5.74%. In the data set on MCF-7 cells [4], the “Apoptosis Early” value was 7.28%; the “Apoptosis Late” value came out at 14.94%; the “Apoptosis Total” value came to 22.22%; the Necrosis was 15% and 15.31%. Moreover, at VEGFR-2 (KDR), the “Fold Relative to Sorafenib” value came out at 1.5 fold and the IC50 was determined as 46.6 ± 2.8 nM.

Turning to `Cn1c(SCc2ccc(C#N)cc2)nc2cc3ccccc3cc2c1=O` [Compound 7, 4-(((3-Methyl-4-oxo-3,4-dihydrobenzo[g]quinazolin-2-yl)thio)methyl)benzonitrile], the melting point was 201 to 203 °C. The IC50 in data set [1] (setting [7]) came to 36 ± 3.1 µM. For the same compound, the IC50 in data set [1] (setting [8]) was 36 µM. Further, the IC50 in data set [2] (setting [9]) was 9.8 ± 1.2 µM. In data set [2] (setting [10]), the IC50 is 9.8 µM.

As for `Cn1c(SCc2ccc(Cl)cc2)nc2cc3ccccc3cc2c1=O` [Compound 6, 2-((4-Chlorobenzyl)thio)-3-methylbenzo[g]quinazolin-4(3H)-one], the melting point fell in the range of 190 to 192 °C. The IC50 in data set [1] (setting [7]) came out at 28.8 ± 2.6 µM. The IC50 in data set [1] (setting [8]) is 28.8 µM. Further, the IC50 in data set [2] (setting [9]) was 10.7 ± 1.1 µM. The IC50 in data set [2] (setting [10]) was 10.7 µM.

In the case of `CCn1c(SCc2cccc(C)c2)nc2cc3ccccc3cc2c1=O` [Compound 12, 3-Ethyl-2-((3-methylbenzyl)thio)benzo[g]quinazolin-4(3H)-one], the melting point was in the range of 186 to 188 °C. Further, in data set [1] (setting [7]), the IC50 was 30.7 ± 3.1 µM. Further, in data set [1] (setting [8]), the IC50 is 30.7 µM. In data set [2] (setting [9]), the IC50 was 11.2 ± 0.9 µM. In data set [2] (setting [10]), the IC50 is 11.2 µM.

In turn, `CCSc1nc2cc3ccccc3cc2c(=O)n1CC` [Compound 9, 3-Ethyl-2-(ethylthio)benzo[g]quinazolin-4(3H)-one] showed a melting point of 107 to 109 °C. In data set [1] (setting [7]), the IC50 amounted to 31.7 ± 3.1 µM. The IC50 in data set [1] (setting [8]) was 31.7 µM. For the same compound, the IC50 in data set [2] (setting [9]) stood at 10.2 ± 0.6 µM. Also, the IC50 in data set [2] (setting [10]) is 10.2 µM.

`CCSc1nc2cc3ccccc3cc2c(=O)n1C` [Compound 3, 2-(Ethylthio)-3-methylbenzo[g]quinazolin-4(3H)-one] gave a melting point of 115 to 117 °C. Besides, the IC50 in data set [1] (setting [7]) was determined as 29.9 ± 2.5 µM. Further, the IC50 in data set [1] (setting [8]) is 29.9 µM. In data set [2] (setting [9]), the IC50 amounted to 10.1 ± 0.7 µM. Besides, the IC50 in data set [2] (setting [10]) is 10.1 µM.

For the compound `Cn1c(NN)nc2cc3ccccc3cc2c1=O` [Compound 16], the IC50 in data set [1] (setting [7]) is 28.9 ± 2.3 µM; in data set [1] (setting [8]), 28.9 µM; in data set [2] (setting [9]) it was 10.4 ± 1.1 µM; in data set [2] (setting [10]), 10.4 µM.

`Cn1c(SCc2ccccc2)nc2cc3ccccc3cc2c1=O` [Compound 4, 2-(Benzylthio)-3-methylbenzo[g]quinazolin-4(3H)-one] had a melting point of 150 to 152 °C. Besides, the IC50 in data set [1] (setting [7]) is 34.8 ± 3.1 µM. In addition, the IC50 in data set [1] (setting [8]) is 34.8 µM. Besides, the IC50 in data set [2] (setting [9]) was determined as 10.2 ± 1.1 µM. In data set [2] (setting [10]), the IC50 was 10.2 µM.

The compound `Cc1cccc(CSc2nc3cc4ccccc4cc3c(=O)n2C)c1` [Compound 5, 3-Methyl-2-((3-methylbenzyl)thio)benzo[g]quinazolin-4(3H)-one] gave a melting point of 155 to 157 °C. The IC50 in data set [1] (setting [7]) turned out to be 31.3 ± 3.1 µM. In addition, the IC50 in data set [1] (setting [8]) was 31.3 µM. Besides, the IC50 in data set [2] (setting [9]) came to 10.6 ± 0.7 µM. Moreover, in data set [2] (setting [10]), the IC50 was 10.6 µM.

Consider `COc1cccc2c1C(=O)c1c(O)c3c(c(O)c1C2=O)C[C@@](O)(C(=O)CO)C[C@@H]3O[C@H]1C[C@H](N)[C@H](O)[C@H](C)O1` [Doxorubicin, reference compound], for which the IC50 in data set [1] (setting [7]) is 28.5 ± 1.9 µM; in data set [2] (setting [9]), 10.3 ± 0.8 µM.

Take `CCn1c(SCc2cccc(C#N)c2)nc2cc3ccccc3cc2c1=O` [Compound 11, 3-(((3-Ethyl-4-oxo-3,4-dihydrobenzo[g]quinazolin-2-yl)thio)methyl)benzonitrile]: the melting point was in the range of 140 to 142 °C. In addition, the IC50 in data set [1] (setting [7]) turned out to be 34.2 ± 2.9 µM. The IC50 in data set [1] (setting [8]) is 34.2 µM. The IC50 in data set [2] (setting [9]) was determined as 10.6 ± 1.1 µM. Further, the IC50 in data set [2] (setting [10]) is 10.6 µM.

The values above are taken from article PMC7765401, “Antiproliferative and Antiangiogenic Properties of New VEGFR-2-targeting 2-thioxobenzo[g]quinazoline Derivatives (In Vitro)” (Molecules, 2020).
